Type in all cases: physicochemical
Data set [1] is described as follows: Absorption spectra (Soret and Q bands). As to the method: (§1) Absorption spectra were recorded on a Beckman DU-64 spectrophotometer. Emission spectra (fluorescence and phosphorescence) were recorded using an AMINCO SPF-500C spectrofluorimeter. ^1H NMR spectra were recorded using a Brucker 300 MHz instrument. Phosphorescence lifetime measurements were performed using a light guide phosphorimeter designed by applicants. HPLC analysis of reaction mixtures was carried out on a SpectraPhysics 8800 gradient system, using an Adsorbosphere HS C4 100×4.6 mm column and methanol:water mixture as a mobile phase.

Data set [2] is described as follows: Phosphorescence lifetime at zero oxygen, light guide phosphorimeter.
Source text: (§2) Solvents for phosphorescence measurements were degassed by three freeze-pump-thaw cycles and stored in a vacuum over sodium benzophenone ketyl (THF) or 4 Å molecular sieves (DMF). The solvents were vacuum transferred immediately prior to the phosphorescence measurements and samples were sealed under high vacuum.
(§3) An enzymatic system (glucose-glucose oxidase-catalase) was used for deoxygenation of aqueous solutions and N2-O2 gas mixtures containing either 2.89% of oxygen or 20% oxygen (air) were used for calibration and measurements of the quenching constants.
as §1

Data set [3] can be described thus: Quenching of phosphorescence by oxygen (Stern-Volmer quenching constant).
Source text: Phosphorescence of certain chemical compounds is quenched by oxygen according to the Stern-Volmer relationship which is stated as follows:
where T0 and T are the phosphorescence lifetimes in the absence of oxygen, PO2 is the oxygen pressure for a lifetime of T, and kQ is the quenching constant. The constant kQ is related to the frequency of collisions between the excited triplet state molecule and molecular oxygen and the probability of energy transfer occurring when these molecules collide.
as §3, §1

The nature of data set [4]: Phosphorescence spectra of deoxygenated samples. To be noted: solvent THF, 25 °C. As to the method: as §2, §1
Phosphorescence of a series of metal-TBP compounds was detected using constant irradiation of samples with light wavelengths at their Q and Soret bands. To observe the phosphorescence phenomena and to record phosphorescence spectra, the samples were intensively deoxygenated. Accordingly, highly degassed dimethylformamide (DMF) or THF were used as solvents. The phosphorescence spectra of LuTPhTBP and PdTPhTBP are depicted in FIGS. 5 and 6, respectively.

Setting [5] is: solvent DMF, TBP/TPhTBP compounds.
[6] abbreviates: solvent DMF, TPhTNP compounds, average position of split Soret band.
The mark [7] stands for this setting: Phy. sol. (aqueous, pH 7.0), 38 °C.
The mark [8] stands for this setting: Phy. sol. adjusted to pH 7.4, 38 °C.

This note sets out measurements from patent US6362175B1, “Porphyrin compounds for imaging tissue oxygen” (The Trustees of the University of Pennsylvania, priority 1991, dated 2002).

For the compound `[OH][La]1[n]2c3c4ccccc4c2C(c2ccccc2)=C2N=C(C(c4ccccc4)=c4c5ccccc5c([n]41)=C(c1ccccc1)C1=NC(=C3c3ccccc3)c3ccccc31)c1ccccc12` [La(OH)TPhTBP], the Q-band in data set [1] (solvent DMF) is listed as 633 nm. The compound further gave a Soret band in data set [1] (setting [5]) of 432 nm.

On to `[OH][La]1[n]2c3c4cc5ccccc5cc4c2C(c2ccccc2)=C2N=C(C(c4ccccc4)=c4c5cc6ccccc6cc5c([n]41)=C(c1ccccc1)C1=NC(=C3c3ccccc3)c3cc4ccccc4cc31)c1cc3ccccc3cc12` [La(OH)TPhTNP], for which the Q-band in data set [1] (solvent DMF) was 708 nm. This compound showed a Soret band in data set [1] (setting [6]) of 440 nm.

In data set [1] (solvent Acetone), `[OH][Lu]1[n]2c3c4ccccc4c2C(c2ccccc2)=C2N=C(C(c4ccccc4)=c4c5ccccc5c([n]41)=C(c1ccccc1)C1=NC(=C3c3ccccc3)c3ccccc31)c1ccccc12` [Lu(OH)TPhTBP, lutetium (hydroxy) meso-tetraphenyltetrabenzoporphyrin] registered a Q-band of 628 nm and a Soret band of 423 nm.

With `[OH][Lu]1[n]2c3c4cc5ccccc5cc4c2C(c2ccccc2)=C2N=C(C(c4ccccc4)=c4c5cc6ccccc6cc5c([n]41)=C(c1ccccc1)C1=NC(=C3c3ccccc3)c3cc4ccccc4cc31)c1cc3ccccc3cc12` [Lu(OH)TPhTNP], the Q-band in data set [1] (solvent DMF) was 709 nm. The compound also displayed a Soret band in data set [1] (setting [6]) of 440 nm.

`c1ccc(C2=C3N=C(C(c4ccccc4)=c4c5ccccc5c5[n]4[Pb][n]4c2c2ccccc2c4C(c2ccccc2)=C2N=C(C=5c4ccccc4)c4ccccc42)c2ccccc23)cc1` [PbTPhTBP]: in data set [1] (solvent Acetone), the Q-band is recorded as 663 nm and the Soret band was 487 nm.

As for `O=S(=O)(N[C@H]1C(O)O[C@H](CO)[C@@H](O)[C@@H]1O)c1ccc(C2=C3N=C(C(c4ccc(S(=O)(=O)N[C@H]5C(O)O[C@H](CO)[C@@H](O)[C@@H]5O)cc4)=c4c5ccccc5c5[n]4[Pd][n]4c2c2ccccc2c4C(c2ccc(S(=O)(=O)N[C@H]4C(O)O[C@H](CO)[C@@H](O)[C@@H]4O)cc2)=C2N=C(C=5c4ccc(S(=O)(=O)N[C@H]5C(O)O[C@H](CO)[C@@H](O)[C@@H]5O)cc4)c4ccccc42)c2ccccc23)cc1` (stereo partly drawn) [PdTPhTBP (glucosamine)4], in data set [1] (solvent water), the Q-band stood at 615 nm and the Soret band is given as 409 nm. For the same compound, the “Phosphorescent lifetime at zero-oxygen concentration” value (shortened to “Phosphorescent lifetime”) in data set [2] (setting [7]) is 431 μs. Further, in data set [3] (setting [7]), the “Quenching constant at a temperature of 38° C.” value (“Quenching constant” for short) was determined as 194 Torr^−1s^−1.

In the case of `O=C(O)CNS(=O)(=O)c1ccc(C2=C3N=C(C(c4ccc(S(=O)(=O)NCC(=O)O)cc4)=c4c5ccccc5c5[n]4[Pd][n]4c2c2ccccc2c4C(c2ccc(S(=O)(=O)NCC(=O)O)cc2)=C2N=C(C=5c4ccc(S(=O)(=O)NCC(=O)O)cc4)c4ccccc42)c2ccccc23)cc1` [PdTPhTBP (glyc)4], in data set [1] (solvent water), the Q-band came to 620 nm and the Soret band is 421 nm. The “Phosphorescent lifetime” value in data set [2] (setting [7]) is 408 μs. For the same compound, the “Quenching constant” value in data set [3] (setting [7]) turned out to be 186 Torr^−1s^−1.

Regarding `O=C(O)Cc1ccc(NS(=O)(=O)c2ccc(C3=C4N=C(C(c5ccc(S(=O)(=O)Nc6ccc(CC(=O)O)cc6)cc5)=c5c6ccccc6c6[n]5[Pd][n]5c3c3ccccc3c5C(c3ccc(S(=O)(=O)Nc5ccc(CC(=O)O)cc5)cc3)=C3N=C(C=6c5ccc(S(=O)(=O)Nc6ccc(CC(=O)O)cc6)cc5)c5ccccc53)c3ccccc34)cc2)cc1` [PdTPhTBP (sulfonamide)4], in data set [1] (solvent water), the Q-band is 630 nm and the Soret band is 415 nm. Also, the “Phosphorescent lifetime” value in data set [2] (setting [8]) is recorded as 377 μs. Besides, the “Quenching constant” value in data set [3] (setting [8]) was determined as 185 Torr^−1s^−1.

In data set [1] (solvent CHCl3), `c1ccc(C2=C3N=C(C(c4ccccc4)=c4c5ccccc5c5[n]4[Pd][n]4c2c2ccccc2c4C(c2ccccc2)=C2N=C(C=5c4ccccc4)c4ccccc42)c2ccccc23)cc1` [PdTPhTBP, palladium meso-tetraphenyltetrabenzoporphyrin] had a Q-band of 610 nm and a Soret band of 420 nm. Further, the Phosphorescence maximum in data set [4] is reported as 784 nm. In addition, in data set [2] (solvent THF, 25 °C), the “Phosphorescent lifetime” value is 127 μs.

As to `c1ccc(C2=C3N=C(C(c4ccccc4)=c4c5cc6ccccc6cc5c5[n]4[Pd][n]4c2c2cc6ccccc6cc2c4C(c2ccccc2)=C2N=C(C=5c4ccccc4)c4cc5ccccc5cc42)c2cc4ccccc4cc23)cc1` [PdTPhTNP], the Q-band in data set [1] (solvent DMF) turned out to be 694 nm. In data set [1] (setting [6]), this compound gave a Soret band of 415 nm. Also, the “Phosphorescent lifetime” value in data set [2] (solvent THF, 25 °C) amounted to 165 μs.

`c1ccc(C2=C3N=C(C(c4ccccc4)=c4c5ccccc5c5[n]4[Pt][n]4c2c2ccccc2c4C(c2ccccc2)=C2N=C(C=5c4ccccc4)c4ccccc42)c2ccccc23)cc1` [PtTPhTBP] returned a Q-band in data set [1] (solvent DMF) of 630 nm. In data set [1] (setting [5]), the Soret band was determined as 437 nm.

The compound `c1ccc(C2=C3N=C(C(c4ccccc4)=c4c5cc6ccccc6cc5c5[n]4[Pt][n]4c2c2cc6ccccc6cc2c4C(c2ccccc2)=C2N=C(C=5c4ccccc4)c4cc5ccccc5cc42)c2cc4ccccc4cc23)cc1` [PtTPhTNP] came in with a Q-band in data set [1] (solvent DMF) of 700 nm. In data set [1] (setting [6]), this compound showed a Soret band of 425 nm.

Turning to `c1ccc(C2=C3N=C(C(c4ccccc4)=c4c5ccccc5c5[n]4[Sn][n]4c2c2ccccc2c4C(c2ccccc2)=C2N=C(C=5c4ccccc4)c4ccccc42)c2ccccc23)cc1` [SnTPhTBP], in data set [1] (solvent Acetone), the Q-band is recorded as 642 nm and the Soret band is given as 438 nm.

As for `[OH][Y]1[n]2c3c4ccccc4c2C(c2ccccc2)=C2N=C(C(c4ccccc4)=c4c5ccccc5c([n]41)=C(c1ccccc1)C1=NC(=C3c3ccccc3)c3ccccc31)c1ccccc12` [Y(OH)TPhTBP], in data set [1] (solvent Acetone), the Q-band is listed as 630 nm and the Soret band was determined as 431 nm.

In data set [1] (solvent DMF), `[Zn].c1ccc2c(c1)-c1cc3[nH]c(cc4nc(cc5[nH]c(cc-2n1)c1ccccc51)-c1ccccc1-4)c1ccccc31` [ZnTBP (Pyridine)2, zinc tetrabenzoporphyrin] gave a Q-band of 624 nm. Besides, the Soret band in data set [1] (setting [5]) is reported as 425 nm.

In data set [1] (solvent Acetone), `c1ccc(C2=C3N=C(C(c4ccccc4)=c4c5ccccc5c5[n]4[Zn][n]4c2c2ccccc2c4C(c2ccccc2)=C2N=C(C=5c4ccccc4)c4ccccc42)c2ccccc23)cc1.c1ccncc1.c1ccncc1` [ZnTPhTBP (Pyridine)2] returned a Q-band of 625 nm and a Soret band of 428 nm.

“lutetium (Lu) tetraphenyltetranaphthoporphyrin [LuTPhTNP]”: the “Phosphorescent lifetime” value in data set [2] (solvent DMF, 25 °C) came to 172 μs.
